Test results: ChEMBL document CHEMBL5096194, “Development of Alectinib-Based PROTACs as Novel Potent Degraders of Anaplastic Lymphoma Kinase (ALK)” (J Med Chem, 2021)
Active and inactive are the calls of the source. The calls are words filed in the database; no cut-off is given here.

How the values were obtained:
[1] = MRTlast in Sprague-Dawley rat at 50 mg/kg, ip administered as single dose measured for 24 hrs by LC-MS/MS analysis; format: ADME, organism-based; conditions: in vivo
BaF3 [2] = experiment: Antiproliferative activity against crizotinib-resistant mouse BaF3 cells expressing EML-ALK L1196M mutant assessed as cell viability at 1 uM incubated for 72 hrs by Celltitre-Glo assay relative to control; format: functional; conditions: read-out: Activity
[3] = AUC (0 to t) in Sprague-Dawley rat at 1 mg/kg, iv administered as single dose measured for 24 hrs by LC-MS/MS analysis; format: ADME, organism-based; parameters: time 24 hrs, dose 1 mg/kg, route iv; conditions: in vivo
[4] = Tmax in Sprague-Dawley rat at 50 mg/kg, ip administered as single dose measured for 24 hrs by LC-MS/MS analysis; format: ADME, organism-based; conditions: in vivo
[5] = Toxicity in NCG mouse xenografted with human KARPAS-299 cells assessed as kidney damage at 10 mg/kg, iv administered once every day for 3 weeks by H and E staining based analysis; format: organism-based; conditions: in vivo, 504 h
[6] = target: Protein cereblon/ALK tyrosine kinase receptor/Echinoderm microtubule-associated protein-like 4 (Homo sapiens) (UniProt Q9UM73+Q9HC35+Q96SW2); experiment: Protac activity at CRBN/EML4-ALK in human NCI-H3122 cells assessed as induction of EML4-ALK fusion protein degradation at 1 uM incubated for 16 hrs by Western blot analysis relative to control; format: cell-based
[7] = target: T1, Protein cereblon/ALK tyrosine kinase receptor/Nucleophosmin (Homo sapiens) (UniProt Q9UM73+P06748+Q96SW2); experiment: Protac activity at CRBN/NPM-ALK in human KARPAS-299 cells assessed as induction of NPM-ALK fusion protein degradation at 2 uM incubated for 24 hrs by Western blot analysis; format: cell-based
BaF3 [8] = experiment: Antiproliferative activity against crizotinib-resistant mouse BaF3 cells expressing EML-ALK G1202R mutant assessed as cell viability at 1 uM incubated for 72 hrs by Celltitre-Glo assay relative to control; format: functional; conditions: read-out: Activity
KARPAS-299 [9] = experiment: Antitumor activity against human KARPAS-299 cells xenografted in NCG mouse assessed as reduction in tumor weight at 25 to 50 mg/kg, ip administered once every day for 3 weeks and measured every 3 days; format: functional, organism-based; conditions: dose 25-50 mg/kg
BaF3 [10] = experiment: Antiproliferative activity against mouse BaF3 cells assessed as cell viability at 1 uM incubated for 72 hrs by Celltitre-Glo assay relative to control; format: functional; conditions: read-out: Activity
KARPAS-299 [11] = experiment: Antitumor activity against human KARPAS-299 cells xenografted in NCG mouse assessed as reduction in tumor volume at 5 to 10 mg/kg, iv administered once every day for 3 weeks and measured every 3 days; format: functional, organism-based; conditions: dose 5-10 mg/kg
KARPAS-299 [12] = experiment: Downregulation of SESN2 protein expression in human KARPAS-299 cells at 1 uM incubated for 24 hrs by iTRAQ proteomics analysis; format: functional, cell-based
KARPAS-299 [13] = experiment: Antiproliferative activity against ALK-positive human KARPAS-299 cells assessed as inhibition of cell proliferation measured after 72 hrs by MTT assay; format: functional, cell-based; conditions: KARPAS-299, 72 h
KARPAS-299 [14] = experiment: Antitumor activity against human KARPAS-299 cells xenografted in NCG mouse assessed as increase in ALK protein degradation at 25 to 50 mg/kg, ip administered once every day for 3 weeks; format: functional, organism-based; conditions: dose 25-50 mg/kg
BaF3 [15] = experiment: Antiproliferative activity against crizotinib-resistant mouse BaF3 cells expressing EML-ALK L1152R mutant assessed as cell viability at 1 uM incubated for 72 hrs by Celltitre-Glo assay relative to control; format: functional; conditions: read-out: Activity
[16] = Cmax in Sprague-Dawley rat at 1 mg/kg, iv administered as single dose measured for 24 hrs by LC-MS/MS analysis; format: ADME, organism-based; parameters: time 24 hrs, dose 1 mg/kg, route iv; conditions: in vivo
[17] = Observed oral clearance in Sprague-Dawley rat at 50 mg/kg, ip administered as single dose measured for 24 hrs by LC-MS/MS analysis; format: ADME, organism-based; conditions: in vivo
[18] = target: T2, ALK tyrosine kinase receptor (Homo sapiens, UniProt Q9UM73); experiment: Inhibition of ALK phosphorylation in human KARPAS-299 cells at 0.01 to 1 uM measured after 24 hrs by Western blot analysis; format: cell-based; conditions: dose 0.01-1 µM
[19] = Toxicity in NCG mouse xenografted with human KARPAS-299 cells assessed as spleen damage at 10 mg/kg, iv administered once every day for 3 weeks by H and E staining based analysis; format: organism-based; conditions: in vivo, 504 h
[20] = target: Signal transducer and activator of transcription 3 (Homo sapiens) (UniProt P40763); experiment: Inhibition of STAT3 phosphorylation in human KARPAS-299 cells as 100 nM measured after 24 hrs by Western blot analysis relative to control; format: cell-based
[21] = Volume of distribution in Sprague-Dawley rat at 1 mg/kg, iv administered as single dose measured for 24 hrs by LC-MS/MS analysis; format: ADME, organism-based; conditions: in vivo
KARPAS-299 [22] = experiment: Downregulation of ALK protein expression in human KARPAS-299 cells at 1 uM incubated for 24 hrs by iTRAQ proteomics analysis; format: functional, cell-based
[23] = target: NPM/ALK (Nucleophosmin/ALK tyrosine kinase receptor) (Homo sapiens) (UniProt Q9UM73+P06748); experiment: Induction of NPM-ALK degradation in human KARPAS-299 cells assessed as reduction in NPM-ALK protein level at 1 uM measured after 24 hrs by Western blot analysis; format: cell-based
KARPAS-299 [24] = experiment: Downregulation of jun-B protein expression in human KARPAS-299 cells at 1 uM incubated for 24 hrs by iTRAQ proteomics analysis; format: functional, cell-based
[25] = Tmax in Sprague-Dawley rat at 1 mg/kg, iv administered as single dose measured for 24 hrs by LC-MS/MS analysis; format: ADME, organism-based; conditions: in vivo
KARPAS-299 [26] = experiment: Antitumor activity against human KARPAS-299 cells xenografted in NCG mouse assessed as reduction in tumor weight at 5 to 10 mg/kg, iv administered once every day for 3 weeks and measured every 3 days; format: functional, organism-based; conditions: dose 5-10 mg/kg
[27] = target: Signal transducer and activator of transcription 3 (Homo sapiens) (UniProt P40763); experiment: Inhibition of STAT3 phosphorylation in human KARPAS-299 cells as 0.01 to 1 uM measured after 24 hrs by Western blot analysis; format: cell-based; conditions: dose 0.01-1 µM
[28] = target: T2, ALK tyrosine kinase receptor; experiment: Inhibition of ALK phosphorylation in human KARPAS-299 cells at 100 nM measured after 48 hrs by Western blot analysis; format: cell-based
[29] = In vivo induction of degradation of ALK in human KARPAS-299 cells xenografted in NCG mouse assessed as ALK protein expression in tumor at 10 mg/kg, iv administered as single dose measured after 24 hrs by immunoblot analysis relative to control; format: functional
[30] = Volume of distribution in Sprague-Dawley rat at 50 mg/kg, ip administered as single dose measured for 24 hrs by LC-MS/MS analysis; format: ADME, organism-based; conditions: in vivo
[31] = target: T1, Protein cereblon/ALK tyrosine kinase receptor/Nucleophosmin (Homo sapiens); experiment: Protac activity at CRBN/NPM-ALK in human KARPAS-299 cells assessed as induction of NPM-ALK fusion protein degradation at 1 uM incubated for 24 hrs followed by compound washout and measured after 24 hrs by Western blot analysis; format: cell-based
NCI-H3122 = experiment: Antiproliferative activity against ALK-positive human NCI-H3122 cells assessed as inhibition of cell proliferation measured after 72 hrs by MTT assay; format: functional, cell-based; conditions: NCI-H3122, 72 h

T1 sequence (P06748 whole entry partner, the tested form may be a part): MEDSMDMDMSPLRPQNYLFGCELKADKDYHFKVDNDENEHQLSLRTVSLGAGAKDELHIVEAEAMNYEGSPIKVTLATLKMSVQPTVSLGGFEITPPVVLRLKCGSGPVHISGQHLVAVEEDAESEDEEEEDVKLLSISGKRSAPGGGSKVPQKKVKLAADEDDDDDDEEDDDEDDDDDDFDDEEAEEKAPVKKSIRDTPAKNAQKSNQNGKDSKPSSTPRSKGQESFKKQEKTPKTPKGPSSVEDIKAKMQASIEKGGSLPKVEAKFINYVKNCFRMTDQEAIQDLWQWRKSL
T1 sequence (Q96SW2 whole entry partner, the tested form may be a part): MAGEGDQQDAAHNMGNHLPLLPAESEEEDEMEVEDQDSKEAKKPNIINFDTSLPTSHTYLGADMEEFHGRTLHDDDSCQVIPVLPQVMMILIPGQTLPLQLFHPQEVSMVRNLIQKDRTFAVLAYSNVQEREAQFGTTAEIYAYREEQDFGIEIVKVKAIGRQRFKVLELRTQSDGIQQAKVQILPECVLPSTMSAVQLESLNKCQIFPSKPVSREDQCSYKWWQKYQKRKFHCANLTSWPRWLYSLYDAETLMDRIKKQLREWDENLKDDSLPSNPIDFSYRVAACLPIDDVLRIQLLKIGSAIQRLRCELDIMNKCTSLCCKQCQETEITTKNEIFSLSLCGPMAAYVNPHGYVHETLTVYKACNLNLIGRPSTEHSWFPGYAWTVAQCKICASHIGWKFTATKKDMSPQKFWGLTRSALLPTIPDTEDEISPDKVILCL
T1 sequence (Q9UM73 19-1620 limits assumed): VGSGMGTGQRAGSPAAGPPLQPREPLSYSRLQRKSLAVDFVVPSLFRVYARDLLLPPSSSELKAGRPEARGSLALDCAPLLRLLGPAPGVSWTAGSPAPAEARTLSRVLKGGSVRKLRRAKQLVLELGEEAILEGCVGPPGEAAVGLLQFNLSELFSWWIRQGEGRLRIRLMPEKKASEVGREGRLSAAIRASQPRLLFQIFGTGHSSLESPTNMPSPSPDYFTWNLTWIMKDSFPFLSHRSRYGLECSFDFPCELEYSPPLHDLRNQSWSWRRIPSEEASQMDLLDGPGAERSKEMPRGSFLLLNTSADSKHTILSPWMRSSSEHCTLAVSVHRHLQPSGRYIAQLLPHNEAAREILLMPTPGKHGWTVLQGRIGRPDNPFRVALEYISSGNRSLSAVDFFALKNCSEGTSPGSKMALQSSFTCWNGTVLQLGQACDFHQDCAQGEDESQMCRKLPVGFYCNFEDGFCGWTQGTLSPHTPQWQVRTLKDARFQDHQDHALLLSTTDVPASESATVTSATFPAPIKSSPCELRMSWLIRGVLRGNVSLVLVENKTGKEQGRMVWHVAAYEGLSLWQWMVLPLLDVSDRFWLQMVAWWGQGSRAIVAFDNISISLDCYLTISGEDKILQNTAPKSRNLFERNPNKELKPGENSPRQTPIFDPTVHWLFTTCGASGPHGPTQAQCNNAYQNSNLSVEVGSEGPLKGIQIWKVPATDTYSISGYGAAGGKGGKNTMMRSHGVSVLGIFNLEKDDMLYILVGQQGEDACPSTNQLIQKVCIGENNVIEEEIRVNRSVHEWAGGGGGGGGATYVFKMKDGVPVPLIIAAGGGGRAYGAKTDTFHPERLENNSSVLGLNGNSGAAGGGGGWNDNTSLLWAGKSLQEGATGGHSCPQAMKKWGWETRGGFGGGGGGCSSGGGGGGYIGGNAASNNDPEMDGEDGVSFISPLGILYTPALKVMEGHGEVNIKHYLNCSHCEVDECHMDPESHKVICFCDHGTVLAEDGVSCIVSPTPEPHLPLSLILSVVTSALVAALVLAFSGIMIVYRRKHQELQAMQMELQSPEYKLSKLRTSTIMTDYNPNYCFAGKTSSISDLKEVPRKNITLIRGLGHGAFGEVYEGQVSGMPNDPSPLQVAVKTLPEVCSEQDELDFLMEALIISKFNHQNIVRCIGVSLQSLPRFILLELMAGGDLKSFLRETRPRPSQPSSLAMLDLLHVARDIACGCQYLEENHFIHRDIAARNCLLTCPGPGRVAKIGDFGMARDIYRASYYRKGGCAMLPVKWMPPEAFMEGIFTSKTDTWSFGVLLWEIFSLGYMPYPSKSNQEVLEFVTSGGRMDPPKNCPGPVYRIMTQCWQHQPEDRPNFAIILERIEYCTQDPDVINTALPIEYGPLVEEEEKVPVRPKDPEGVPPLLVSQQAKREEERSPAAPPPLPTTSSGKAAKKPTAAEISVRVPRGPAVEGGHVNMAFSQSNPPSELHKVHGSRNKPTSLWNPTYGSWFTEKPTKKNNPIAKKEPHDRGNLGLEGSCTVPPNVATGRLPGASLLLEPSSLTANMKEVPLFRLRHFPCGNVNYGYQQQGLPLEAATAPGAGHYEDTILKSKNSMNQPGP
Sequence of Signal transducer and activator of transcription 3 (Homo sapiens) (P40763 whole entry): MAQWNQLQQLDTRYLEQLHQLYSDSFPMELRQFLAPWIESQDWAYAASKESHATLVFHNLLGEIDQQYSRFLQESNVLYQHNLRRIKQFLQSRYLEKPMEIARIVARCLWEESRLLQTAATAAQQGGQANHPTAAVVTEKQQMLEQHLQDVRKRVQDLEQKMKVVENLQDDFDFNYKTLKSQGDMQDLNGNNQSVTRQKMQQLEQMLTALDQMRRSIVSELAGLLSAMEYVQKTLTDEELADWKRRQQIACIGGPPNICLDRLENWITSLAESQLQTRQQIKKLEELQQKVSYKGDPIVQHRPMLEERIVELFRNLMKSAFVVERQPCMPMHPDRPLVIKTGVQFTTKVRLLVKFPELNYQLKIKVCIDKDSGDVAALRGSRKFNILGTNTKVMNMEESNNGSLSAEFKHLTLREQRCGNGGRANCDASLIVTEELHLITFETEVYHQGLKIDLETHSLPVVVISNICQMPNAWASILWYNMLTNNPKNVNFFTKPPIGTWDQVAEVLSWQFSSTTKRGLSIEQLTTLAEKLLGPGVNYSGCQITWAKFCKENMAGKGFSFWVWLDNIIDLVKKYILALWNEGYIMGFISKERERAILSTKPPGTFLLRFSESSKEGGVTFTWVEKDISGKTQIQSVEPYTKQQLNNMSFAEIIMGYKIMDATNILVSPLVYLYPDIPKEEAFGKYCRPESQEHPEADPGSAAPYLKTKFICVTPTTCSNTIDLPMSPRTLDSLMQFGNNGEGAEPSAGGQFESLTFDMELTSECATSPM
T2 sequence (Q9UM73 19-1620 limits assumed): as the sequence (Q9UM73 19-1620 limits assumed) above
Sequence of NPM/ALK (Nucleophosmin/ALK tyrosine kinase receptor) (Homo sapiens) (P06748 whole entry partner): as the sequence (P06748 whole entry partner, the tested form may be a part) above
Sequence of NPM/ALK (Nucleophosmin/ALK tyrosine kinase receptor) (Homo sapiens) (Q9UM73 19-1620 limits assumed): as the sequence (Q9UM73 19-1620 limits assumed) above
Sequence of Protein cereblon/ALK tyrosine kinase receptor/Echinoderm microtubule-associated protein-like 4 (Homo sapiens) (Q96SW2 whole entry partner, the tested form may be a part): as the sequence (Q96SW2 whole entry partner, the tested form may be a part) above
Sequence of Protein cereblon/ALK tyrosine kinase receptor/Echinoderm microtubule-associated protein-like 4 (Homo sapiens) (Q9HC35 whole entry partner, the tested form may be a part): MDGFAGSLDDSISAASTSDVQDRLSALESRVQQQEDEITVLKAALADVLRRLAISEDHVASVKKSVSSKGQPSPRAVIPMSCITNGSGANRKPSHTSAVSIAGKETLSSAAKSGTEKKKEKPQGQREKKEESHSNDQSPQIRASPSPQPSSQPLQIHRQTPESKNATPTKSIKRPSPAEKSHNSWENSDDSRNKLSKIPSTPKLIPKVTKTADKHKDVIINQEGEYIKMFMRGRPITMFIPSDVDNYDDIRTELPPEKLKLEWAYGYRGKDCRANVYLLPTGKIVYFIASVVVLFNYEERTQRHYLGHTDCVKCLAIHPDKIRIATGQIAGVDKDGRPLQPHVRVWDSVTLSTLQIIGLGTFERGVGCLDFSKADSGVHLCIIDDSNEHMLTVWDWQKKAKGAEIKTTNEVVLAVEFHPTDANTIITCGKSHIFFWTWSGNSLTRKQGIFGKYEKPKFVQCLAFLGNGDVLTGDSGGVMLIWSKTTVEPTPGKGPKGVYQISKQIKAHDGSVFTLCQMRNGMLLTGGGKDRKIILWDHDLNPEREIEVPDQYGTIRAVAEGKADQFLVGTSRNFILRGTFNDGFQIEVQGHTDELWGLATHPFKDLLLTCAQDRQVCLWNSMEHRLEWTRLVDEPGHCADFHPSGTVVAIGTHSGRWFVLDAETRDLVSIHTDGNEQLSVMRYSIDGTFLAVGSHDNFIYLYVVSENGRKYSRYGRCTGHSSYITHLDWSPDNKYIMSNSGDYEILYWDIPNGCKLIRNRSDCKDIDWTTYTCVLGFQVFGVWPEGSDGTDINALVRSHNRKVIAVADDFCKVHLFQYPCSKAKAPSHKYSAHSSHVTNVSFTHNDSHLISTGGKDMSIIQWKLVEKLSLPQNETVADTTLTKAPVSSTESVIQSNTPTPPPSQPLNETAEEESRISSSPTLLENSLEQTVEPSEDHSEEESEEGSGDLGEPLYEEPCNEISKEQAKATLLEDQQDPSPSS
Sequence of Protein cereblon/ALK tyrosine kinase receptor/Echinoderm microtubule-associated protein-like 4 (Homo sapiens) (Q9UM73 19-1620 limits assumed): as the sequence (Q9UM73 19-1620 limits assumed) above

CCc1cc2c(cc1N1CCN(C(=O)CNc3cccc4c3C(=O)N(C3CCC(=O)NC3=O)C4=O)CC1)C(C)(C)c1[nH]c3cc(C#N)ccc3c1C2=O (configuration not stated)
MRT last at 24 h [1]: 596 min | viability at 1 µM (BaF3 [2]): 6.1% | AUC(0-t) at 24 h [3]: 146 ng·h/mL | Tmax [4]: 15 min | Activity [5]: Non-Toxic | Activity [6]: 83.6% | Activity [7]: Active | viability at 1 µM (BaF3 [8]): 77.6% | Activity (KARPAS-299 [9]): Active | viability at 1 µM (BaF3 [10]): 116% | Activity (KARPAS-299 [11]): Active | Activity (KARPAS-299 [12]): Active | IC50 (KARPAS-299 [13]): 42 nM | Activity (KARPAS-299 [14]): Active | viability at 1 µM (BaF3 [15]): 0.1% | Cmax [16]: 994 ng/mL | CL/F [17]: 743 mL/min/kg | inhibition [18]: Active | Activity [19]: Non-Toxic | inhibition [20]: > 85% | Vd [21]: 3.89 L/kg | Activity (KARPAS-299 [22]): Active | Activity [23]: Active | Activity (KARPAS-299 [24]): Active | Tmax [25]: 1.8 min | Activity (KARPAS-299 [26]): Active | inhibition [27]: Active | inhibition [28]: Active | Activity [29]: 18.7% | Vd [30]: 1685.67 L/kg | Activity [31]: Active | IC50 (NCI-H3122): 62 nM
